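Grown in 96-well plates, cells were treated for 48 hours with each compound at five concentrations. Insufficient inhibition: endpoint recorded as highest concentration tested. GI50: concentration for 50% inhibition of growth.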 Activity calls are given as the source filed them. Rule as the data show it: active = GI50 up to about 1.1 µM and inactive = higher.
Key:
Test in all cases: NCI-60 cell line screen, 48 h
IGROV-1 = tested on: IGROV-1
OVCAR-4 = tested on: OVCAR-4
SF-539 = tested on: SF-539
NCI-H226 = tested on: NCI-H226
HCT-116 = tested on: HCT-116
M14 = tested on: M14
SN12C = tested on: SN12C
EKVX = tested on: EKVX
U-251 = tested on: U-251
TK-10 = tested on: TK-10
SK-MEL-5 = tested on: SK-MEL-5
MDA-MB-231 = tested on: MDA-MB-231
HCT-15 = tested on: HCT-15
A549 = tested on: A549
COLO 205 = tested on: COLO 205
SF-268 = tested on: SF-268
OVCAR-5 = tested on: OVCAR-5
PC-3 = tested on: PC-3
DU-145 = tested on: DU-145
HT-29 = tested on: HT-29
RXF 393 = tested on: RXF 393
OVCAR-8 = tested on: OVCAR-8
NCI/ADR-RES = tested on: NCI/ADR-RES
ACHN = tested on: ACHN
NCI-H23 = tested on: NCI-H23
CAKI-1 = tested on: CAKI-1
OVCAR-3 = tested on: OVCAR-3
MDA-N = tested on: MDA-N
SNB-19 = tested on: SNB-19
SW-620 = tested on: SW-620
HOP-92 = tested on: HOP-92
KM12 = tested on: KM12
MDA-MB-435 = tested on: MDA-MB-435
SF-295 = tested on: SF-295
SK-MEL-28 = tested on: SK-MEL-28
SNB-75 = tested on: SNB-75
RPMI-8226 = tested on: RPMI-8226
A498 = tested on: A498
LOX IMVI = tested on: LOX IMVI
HCC 2998 = tested on: HCC 2998
K562 = tested on: K562
UACC-62 = tested on: UACC-62
786-0 = tested on: 786-0
CCRF-CEM = tested on: CCRF-CEM
HL-60 = tested on: HL-60
MOLT-4 = tested on: MOLT-4
NCI-H460 = tested on: NCI-H460
UACC-257 = tested on: UACC-257
SR = tested on: SR
MCF7 = tested on: MCF7
Malme-3M = tested on: Malme-3M
SK-OV-3 = tested on: SK-OV-3
UO-31 = tested on: UO-31
SK-MEL-2 = tested on: SK-MEL-2
NCI-H522 = tested on: NCI-H522
HOP-62 = tested on: HOP-62
T47D = tested on: T47D
Hs-578T = tested on: Hs-578T

SMILES: COC(=O)C1ON2C(C1C(=O)OC)C(C)(C)N(O)C2(C)C (stereo not drawn)
- GI50 (IGROV-1): > 10 µM (inactive)
- GI50 (OVCAR-4): > 10 µM (inactive)
- GI50 (SF-539): > 10 µM (inactive)
- GI50 (NCI-H226): > 10 µM (inactive)
- GI50 (HCT-116): > 10 µM (inactive)
- GI50 (M14): > 10 µM (inactive)
- GI50 (SN12C): > 10 µM (inactive)
- GI50 (EKVX): > 10 µM (inactive)
- GI50 (U-251): > 10 µM (inactive)
- GI50 (TK-10): > 10 µM (inactive)
- GI50 (SK-MEL-5): > 10 µM (inactive)
- GI50 (MDA-MB-231): > 10 µM (inactive)
- GI50 (HCT-15): > 10 µM
- GI50 (A549): > 10 µM (inactive)
- GI50 (COLO 205): > 10 µM (inactive)
- GI50 (SF-268): > 10 µM (inactive)
- GI50 (OVCAR-5): > 10 µM (inactive)
- GI50 (PC-3): > 10 µM (inactive)
- GI50 (DU-145): > 10 µM (inactive)
- GI50 (HT-29): > 10 µM (inactive)
- GI50 (RXF 393): > 10 µM (inactive)
- GI50 (OVCAR-8): > 10 µM (inactive)
- GI50 (NCI/ADR-RES): > 10 µM (inactive)
- GI50 (ACHN): > 10 µM (inactive)
- GI50 (NCI-H23): > 10 µM (inactive)
- GI50 (CAKI-1): > 10 µM (inactive)
- GI50 (OVCAR-3): > 10 µM (inactive)
- GI50 (MDA-N): > 10 µM (inactive)
- GI50 (SNB-19): > 10 µM (inactive)
- GI50 (SW-620): > 10 µM (inactive)
- GI50 (HOP-92): > 10 µM (inactive)
- GI50 (KM12): > 10 µM (inactive)
- GI50 (MDA-MB-435): > 10 µM (inactive)
- GI50 (SF-295): > 10 µM (inactive)
- GI50 (SK-MEL-28): > 10 µM (inactive)
- GI50 (SNB-75): > 10 µM (inactive)

SMILES: CC(C)CC(NC(=O)C(C)(CI)Cc1ccccc1)C(=O)Nc1ccccc1 (stereo not drawn)
- GI50 (IGROV-1): > 100 µM (inactive)
- GI50 (RPMI-8226): > 100 µM (inactive)
- GI50 (OVCAR-4): > 100 µM (inactive)
- GI50 (A498): > 100 µM (inactive)
- GI50 (SF-539): > 100 µM (inactive)
- GI50 (NCI-H226): > 100 µM (inactive)
- GI50 (HCT-116): 31 µM (inactive)
- GI50 (M14): > 100 µM (inactive)
- GI50 (LOX IMVI): > 100 µM (inactive)
- GI50 (SN12C): > 100 µM (inactive)
- GI50 (EKVX): > 100 µM (inactive)
- GI50 (U-251): > 100 µM (inactive)
- GI50 (HCC 2998): > 100 µM (inactive)
- GI50 (TK-10): > 100 µM (inactive)
- GI50 (SK-MEL-5): > 100 µM (inactive)
- GI50 (MDA-MB-231): > 100 µM (inactive)
- GI50 (HCT-15): > 100 µM
- GI50 (A549): > 100 µM (inactive)
- GI50 (COLO 205): > 100 µM (inactive)
- GI50 (K562): > 100 µM (inactive)
- GI50 (UACC-62): > 100 µM (inactive)
- GI50 (786-0): > 100 µM (inactive)
- GI50 (CCRF-CEM): > 100 µM (inactive)
- GI50 (HL-60): 33.2 µM (inactive)
- GI50 (MOLT-4): 56.1 µM (inactive)
- GI50 (OVCAR-5): > 100 µM (inactive)
- GI50 (PC-3): > 100 µM (inactive)
- GI50 (NCI-H460): > 100 µM (inactive)
- GI50 (DU-145): > 100 µM (inactive)
- GI50 (RXF 393): > 100 µM (inactive)
- GI50 (UACC-257): > 100 µM (inactive)
- GI50 (OVCAR-8): > 100 µM (inactive)
- GI50 (NCI/ADR-RES): > 100 µM (inactive)
- GI50 (SR): 22.1 µM (inactive)
- GI50 (ACHN): > 100 µM (inactive)
- GI50 (NCI-H23): > 100 µM (inactive)
- GI50 (CAKI-1): > 100 µM (inactive)
- GI50 (MCF7): > 100 µM (inactive)
- GI50 (Malme-3M): > 100 µM (inactive)
- GI50 (OVCAR-3): > 100 µM (inactive)
- GI50 (MDA-N): > 100 µM (inactive)
- GI50 (SNB-19): > 100 µM (inactive)
- GI50 (SW-620): > 100 µM (inactive)
- GI50 (SK-OV-3): > 100 µM (inactive)
- GI50 (HOP-92): > 100 µM (inactive)
- GI50 (UO-31): > 100 µM (inactive)
- GI50 (KM12): > 100 µM (inactive)
- GI50 (SK-MEL-2): > 100 µM (inactive)
- GI50 (NCI-H522): > 100 µM (inactive)
- GI50 (MDA-MB-435): > 100 µM (inactive)
- GI50 (SF-295): > 100 µM (inactive)
- GI50 (SNB-75): 86.5 µM (inactive)

SMILES: Clc1ccc(COC(Cn2ccnc2)c2ccc(Cl)cc2Cl)c(Cl)c1 (stereo not drawn) [MICONAZOLE NITRATE]
- GI50 (OVCAR-4): 11.9 µM (inactive)
- GI50 (SF-539): 14.6 µM (inactive)
- GI50 (HCT-116): 5.3 µM (inactive)
- GI50 (M14): 10.6 µM (inactive)
- GI50 (LOX IMVI): 9.18 µM (inactive)
- GI50 (SN12C): 7.96 µM (inactive)
- GI50 (EKVX): 10.5 µM (inactive)
- GI50 (U-251): 11 µM (inactive)
- GI50 (HCC 2998): 12.8 µM (inactive)
- GI50 (MDA-MB-231): 11.9 µM (inactive)
- GI50 (HCT-15): 10.2 µM
- GI50 (A549): 10.9 µM (inactive)
- GI50 (SF-268): 10.3 µM (inactive)
- GI50 (K562): 3.75 µM (inactive)
- GI50 (UACC-62): 10.2 µM (inactive)
- GI50 (786-0): 10.9 µM (inactive)
- GI50 (CCRF-CEM): 5.82 µM (inactive)
- GI50 (HL-60): 3.48 µM (inactive)
- GI50 (MOLT-4): 3.36 µM (inactive)
- GI50 (OVCAR-5): 12.9 µM (inactive)
- GI50 (PC-3): 5.7 µM (inactive)
- GI50 (NCI-H460): 12.6 µM (inactive)
- GI50 (DU-145): 13 µM (inactive)
- GI50 (UACC-257): 11 µM (inactive)
- GI50 (OVCAR-8): 8.39 µM (inactive)
- GI50 (NCI/ADR-RES): 4 µM (inactive)
- GI50 (ACHN): 12.2 µM (inactive)
- GI50 (NCI-H23): 8.15 µM (inactive)
- GI50 (CAKI-1): 10.5 µM (inactive)
- GI50 (MCF7): 14.7 µM (inactive)
- GI50 (Malme-3M): 12.5 µM (inactive)
- GI50 (OVCAR-3): 9.86 µM (inactive)
- GI50 (MDA-N): 3.89 µM (inactive)
- GI50 (SNB-19): 15.9 µM (inactive)
- GI50 (SW-620): 12.8 µM (inactive)
- GI50 (SK-OV-3): 14.3 µM (inactive)
- GI50 (UO-31): 2.94 µM (inactive)
- GI50 (KM12): 13.3 µM (inactive)
- GI50 (HOP-62): 13.2 µM (inactive)
- GI50 (SK-MEL-2): 13.1 µM (inactive)
- GI50 (NCI-H522): 8.2 µM (inactive)
- GI50 (T47D): 4.57 µM (inactive)
- GI50 (MDA-MB-435): 3.37 µM (inactive)
- GI50 (SF-295): 10.8 µM (inactive)
- GI50 (SK-MEL-28): 12.7 µM (inactive)

SMILES: O=C(CP(=O)(c1ccccc1)c1ccccc1)c1cccc(C(=O)CP(=O)(c2ccccc2)c2ccccc2)c1
- GI50 (IGROV-1): 55.2 µM (inactive)
- GI50 (RPMI-8226): > 100 µM (inactive)
- GI50 (OVCAR-4): > 100 µM (inactive)
- GI50 (SF-539): 29.7 µM (inactive)
- GI50 (NCI-H226): 95.1 µM (inactive)
- GI50 (HCT-116): 48.9 µM (inactive)
- GI50 (M14): > 100 µM (inactive)
- GI50 (SN12C): > 100 µM (inactive)
- GI50 (EKVX): 56.8 µM (inactive)
- GI50 (U-251): > 10 µM (inactive)
- GI50 (HCC 2998): > 100 µM (inactive)
- GI50 (TK-10): 48.6 µM (inactive)
- GI50 (SK-MEL-5): > 100 µM (inactive)
- GI50 (MDA-MB-231): > 100 µM (inactive)
- GI50 (HCT-15): > 100 µM
- GI50 (A549): > 100 µM (inactive)
- GI50 (COLO 205): > 100 µM (inactive)
- GI50 (SF-268): 30.2 µM (inactive)
- GI50 (K562): > 100 µM (inactive)
- GI50 (UACC-62): > 100 µM (inactive)
- GI50 (786-0): 37.8 µM (inactive)
- GI50 (CCRF-CEM): > 100 µM (inactive)
- GI50 (HL-60): > 100 µM (inactive)
- GI50 (MOLT-4): > 100 µM (inactive)
- GI50 (OVCAR-5): 58.6 µM (inactive)
- GI50 (PC-3): > 100 µM (inactive)
- GI50 (NCI-H460): > 100 µM (inactive)
- GI50 (DU-145): > 100 µM (inactive)
- GI50 (HT-29): > 100 µM (inactive)
- GI50 (RXF 393): 24.7 µM (inactive)
- GI50 (UACC-257): > 100 µM (inactive)
- GI50 (OVCAR-8): 43.1 µM (inactive)
- GI50 (NCI/ADR-RES): > 100 µM (inactive)
- GI50 (SR): > 100 µM (inactive)
- GI50 (ACHN): > 100 µM (inactive)
- GI50 (CAKI-1): > 100 µM (inactive)
- GI50 (MCF7): 98.6 µM (inactive)
- GI50 (SNB-19): 29.2 µM (inactive)
- GI50 (SW-620): > 100 µM (inactive)
- GI50 (SK-OV-3): 23.3 µM (inactive)
- GI50 (UO-31): 20.3 µM (inactive)
- GI50 (KM12): > 100 µM (inactive)
- GI50 (HOP-62): 34.4 µM (inactive)
- GI50 (SK-MEL-2): 49.9 µM (inactive)
- GI50 (T47D): 76 µM (inactive)
- GI50 (MDA-MB-435): > 100 µM (inactive)
- GI50 (Hs-578T): 25.6 µM (inactive)
- GI50 (SF-295): 14.6 µM (inactive)
- GI50 (SK-MEL-28): > 100 µM (inactive)
- GI50 (SNB-75): 20.4 µM (inactive)

From ChEMBL document CHEMBL1201862, “PubChem BioAssay data set” (2004)
